Reference: US20220031690A1, “ANTI-NEURODEGENERATIVE DISEASE AGENT” (Hayashibara Co., Ltd., priority 2018, published 2022)

What follows are compounds tested on PC12-HS cells (assay: Evaluation method B: neurite-outgrowth promoting activity in the presence of NGF). Details: 500 ng/ml, NGF 10 ng/ml, 3 days; class of neurite-outgrowth rate.
Type: cell-based, rat
Text: (§1) As a model of the nerve cell, the NGF (nerve growth factor) highly sensitive strain of PC12 cell derived from the rat adrenal pheochromocytoma (hereinafter referred to as “PC12-HS cell”; JCRB cell bank, National Research and Development Institute of Health and Nutrition), which has been widely used as a suitable model for research on human neurodegenerative disease, was used. As the test compound, […] of trimethine cyanine dye compounds; NK-5 (Chemical formula 2), NK-36 (Chemical formula 3), NK-44 (Chemical formula 5) and dye compounds represented by Chemical formulae 12 to 18, and NK-6 (Chemical formula 7), which is a monomethine cyanine dye, were selected. In addition, two kinds of ethylene cross-linked dyes (Chemical formulae 19 and 20), 15 kinds of monomethine cyanine dyes (Chemical formulae 21 to 35), and seven kinds of trimethine cyanine dyes (Chemical formulae 36 to 42), which were expected to have a good neurocyte growth acceleration activity and/or neurite-outgrowth promoting activity in the screening disclosed in Patent literature 6, were also re-evaluated for comparison. The Chemical formulae 12 to 42 are shown below.
(§2) The cyanine dye compounds subjected to the test (purity 97% by mass or more, synthesized by Hayashibara Co., Ltd., Okayama, Japan) were individually dissolved in DMSO (product number “D8418”, commercialized by SIGMA Corporation) at a concentration of 5 mg/ml, and the solutions were then filtered through DMSO-resistant membrane (“Millex-LGS LLG025SS”, commercialized by Millipore Corporation) and stored at 25° C. in a dark condition. At the time of use, they were further diluted with Dulbecco's Medium (hereinafter, abbreviated as “D-MEM medium”, commercialized by Nissui Pharmaceutical Co., Ltd.) supplemented by 10% by volume of fetal bovine serum (FBS), and subjected to the test.
As in the case of evaluation of neurocyte growth accelerating activity (Evaluation method A), 50 μl/well of each test compound solution, prepared by diluting with the culture medium to give a final concentration of 500 ng/ml, and the culture medium containing 20 ng/ml of mouse NGF (mouse derived, final concentration 10 ng/ml, commercialized by Chemicon International, Inc., CA, USA) (50 μl/well) were added to the precultured PC12-HS cells in each well, and then cultured for three days. Culture medium was removed on day 3 of culture, and cells were fixed by adding 100 μl/well of 10% by volume of glutaraldehyde and standing for 20 minutes at room temperature. As a negative control, PC12-HS cells, cultured for three days with culture medium, were fixed with glutaraldehyde similarly as above. Fixed cells were observed under a microscope to assess the neurite-outgrowth. The neurite-outgrowth rate (%) was determined by observing the cells using a microscope by adjusting the magnitude to give about 100 cells in one visual field, counting the number of cells having neurites twice or more in length of the cell body (major axis), dividing by the total number of cells in the same visual field, and multiplying by 100. Measurements were carried out at three points for each test compound. […] In this experiment, the neurite-outgrowth rate was 5% or less when NGF was added (final concentration 10 ng/ml) without the addition of the test compound.
The method was based on Experiment 1-1, except the concentrations of the test compounds were set to three doses of 40 nM, 200 nM and 1,000 nM for evaluation method A (neurocyte growth accelerating effect), and two doses of 200 nM and 1,000 nM for evaluation method B (neurite outgrowth promoting effect). Measurements were performed in triplicate for each concentration of each test compound in both evaluation methods A and B. The result of the evaluation method A was expressed as a cell proliferation rate (%) by determined a relative percentage (%) when the value of the negative control to which the test compound was not added, was regarded as 100%. […]

SMILES | Action on PC12-HS neurite-outgrowth promotion (500 ng/ml)
CCN1C(C)=CSC1=CC=Cc1scc(C)[n+]1CC.[I-] [NK-67] | ◯ (When the mean neurite-outgrowth rate was 25 to 44%, it was judged to be equivalent to the positive control NK-4 (“circle”))
CCCCCCCN1C(C)=CSC1=Cc1scc(C)[n+]1CCCCCCC.[I-] [NK-266] | ◯ (When the mean neurite-outgrowth rate was 25 to 44%, it was judged to be equivalent to the positive control NK-4 (“circle”))
CCN1C(=Cc2cc[n+](CC)c3ccccc23)C=Cc2ccccc21.[I-] [NK-276] | ◯ (When the mean neurite-outgrowth rate was 25 to 44%, it was judged to be equivalent to the positive control NK-4 (“circle”))
CCN1C(=CC=Cc2sc3ccc4ccccc4c3[n+]2CC)Sc2ccc3ccccc3c21.[I-] [NK-382] | ◯ (When the mean neurite-outgrowth rate was 25 to 44%, it was judged to be equivalent to the positive control NK-4 (“circle”))
CCCCN1C(C)=CSC1=Cc1scc(C)[n+]1CCCC.[I-] [NK-399] | ◯ (When the mean neurite-outgrowth rate was 25 to 44%, it was judged to be equivalent to the positive control NK-4 (“circle”))
CC[n+]1ccccc1C=Cc1ccc(N(C)C)cc1.[I-] [NK-557] | ◯ (When the mean neurite-outgrowth rate was 25 to 44%, it was judged to be equivalent to the positive control NK-4 (“circle”))
Cc1ccc2c(c1)SC(=Cc1sc3cc(C)ccc3[n+]1C)N2C.[I-] [NK-594] | ◯ (When the mean neurite-outgrowth rate was 25 to 44%, it was judged to be equivalent to the positive control NK-4 (“circle”))
CCN1C(=CC=Cc2cc[n+](CC)c3ccccc23)Oc2ccccc21.[I-] [NK-741] | ◯ (When the mean neurite-outgrowth rate was 25 to 44%, it was judged to be equivalent to the positive control NK-4 (“circle”))
CCN1C(=Cc2oc3ccccc3[n+]2CC)Oc2ccccc21.[I-] [NK-863] | ◯ (When the mean neurite-outgrowth rate was 25 to 44%, it was judged to be equivalent to the positive control NK-4 (“circle”))
CCN1C(=Cc2ccc3ccccc3[n+]2CC)C=Cc2ccccc21.[Br-] [NK-1046] | ◯ (When the mean neurite-outgrowth rate was 25 to 44%, it was judged to be equivalent to the positive control NK-4 (“circle”))
CCN1C(=Cc2oc3ccccc3[n+]2CC)Sc2ccccc21.[I-] [NK-1049] | ◯ (When the mean neurite-outgrowth rate was 25 to 44%, it was judged to be equivalent to the positive control NK-4 (“circle”))
CC(=Cc1oc2ccccc2[n+]1C)C=C1Oc2ccccc2N1C.[I-] [NK-1300] | ◯ (When the mean neurite-outgrowth rate was 25 to 44%, it was judged to be equivalent to the positive control NK-4 (“circle”))

The compounds below were run on PC12-HS cells (assay: Evaluation method A: neurocyte growth acceleration activity (Alamar blue)). Details: 50 ng/ml, 3 days culture; class of cell proliferation rate vs negative control = 100%.
Type: cell-based, rat
Text: as §1, §2
PC12-HS cells were subjected to tests after frozen stock cultured cells were thawed and cultured with a D-MEM medium supplemented with 10% by volume of FBS (Hereinafter, when the term “culture” is simply used, it means that the cells are statically cultured in an incubator controlled at 37° C. under 5% by volume of CO2 conditions). Cells used in the test were collected using 0.25% by weight of trypsin solution, then diluted with a D-MEM medium supplemented with 10% by volume of FBS (hereinafter referred to as “culture medium”), seeded into collagen-coated 96-well plates (commercialized by Falcon, Tokyo, Japan, “Microtest Plate, Cell Culture, Flat Bottom”) to obtain 5×10^3 cells/100 μl/well, and cultured for 24 hours (hereinafter referred to as “pre-culture”). Then, the above test samples were diluted with a culture medium, and 100 μl of diluted solution of the test compounds were added to each well so that the final concentration of the test compounds in the wells became 50 ng/ml, and the cells were cultured for another three days. On day 3, the cultures supernatant was removed from each well, 200 μl of culture medium containing 10% by volume of Alamar blue reagents (commercialized by Trek Diagnostic Systems Inc., Ohio, USA) were added to each well, and the cells were cultured for 6 hours. After culturing for 6 hours, the cells were measured for fluorescent intensity at a wavelength of 544-590 nm by “FlexStation 3”, a product name of a fluorescent plate reader (commercialized by Japan Molecular Devices Corporation, Tokyo, Japan). […] Measurements were performed for each test compound in triplicate, and the mean values were shown.
The method was based on Experiment 1-1, except the concentrations of the test compounds were set to three doses of 40 nM, 200 nM and 1,000 nM for evaluation method A (neurocyte growth accelerating effect), and two doses of 200 nM and 1,000 nM for evaluation method B (neurite outgrowth promoting effect). […]

SMILES | Action on PC12-HS growth acceleration (50 ng/ml)
O=C1/C(=C\c2ccccc2)SC(=S)N1c1ccccc1 [NK-1075] | ◯ (the relative value of 130% to 169% was judged to be equivalent to NK-4 (“circle”))
CC1=NN(c2ccccc2)C(=O)/C1=C\c1ccccc1 [NK-1076] | ◯ (the relative value of 130% to 169% was judged to be equivalent to NK-4 (“circle”))
CC1=NN(c2ccccc2)C(=O)/C1=C\c1ccc(N(C)C)cc1 [NK-1107] | ◯ (the relative value of 130% to 169% was judged to be equivalent to NK-4 (“circle”))
CCN1C(=O)/C(=C\C=C\c2sc(=S)n(CC)c2O)SC1=S [NK-1451] | ◯ (the relative value of 130% to 169% was judged to be equivalent to NK-4 (“circle”))
O=C1/C(=C\C=C\c2sc3ccccc3c2O)Sc2ccccc21 [NK-1741] | ◯ (the relative value of 130% to 169% was judged to be equivalent to NK-4 (“circle”))
